Results published in US8957013B2 (priority 2007, dated 2015).

Type: binding

HPNFSKYILHQR
selectivity for DNT over TNT target: selective for the DNT target
